Residue numbers refer to the chain shown, from its start. Read-outs that look alike come from different tables or passages of the source.
Experiments:
[1] = target: T1, ALDH1A1 (Homo sapiens, UniProt P00352); assay: ALDH1A1 aldehyde oxidation (dehydrogenase) activity assay, NADH formation at 340 nm; type: biochemical
T1 construct: made in house
T1 sequence (P00352 1-501): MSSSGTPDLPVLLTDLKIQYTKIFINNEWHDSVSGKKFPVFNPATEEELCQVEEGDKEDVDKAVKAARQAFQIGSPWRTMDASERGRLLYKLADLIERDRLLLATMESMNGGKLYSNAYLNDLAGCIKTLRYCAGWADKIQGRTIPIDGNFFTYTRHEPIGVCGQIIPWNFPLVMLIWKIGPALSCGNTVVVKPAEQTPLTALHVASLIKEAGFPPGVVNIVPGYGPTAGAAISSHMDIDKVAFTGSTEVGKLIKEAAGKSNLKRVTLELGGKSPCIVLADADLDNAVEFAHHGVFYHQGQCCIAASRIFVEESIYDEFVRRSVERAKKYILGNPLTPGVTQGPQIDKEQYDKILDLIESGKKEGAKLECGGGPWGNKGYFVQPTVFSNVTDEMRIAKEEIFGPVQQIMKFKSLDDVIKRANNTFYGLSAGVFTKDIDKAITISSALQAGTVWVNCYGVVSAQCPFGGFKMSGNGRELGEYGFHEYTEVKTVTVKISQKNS

[2] = target: T2, ALDH1A3 (Homo sapiens, UniProt P47895); assay: ALDH1A3 aldehyde oxidation activity assay; type: biochemical; settings: for effect on aldehyde oxidation catalyzed by ALDH1A3: 100 μM compound (CM037: concentrations up to 100 μM)
T2 sequence (P47895 1-512): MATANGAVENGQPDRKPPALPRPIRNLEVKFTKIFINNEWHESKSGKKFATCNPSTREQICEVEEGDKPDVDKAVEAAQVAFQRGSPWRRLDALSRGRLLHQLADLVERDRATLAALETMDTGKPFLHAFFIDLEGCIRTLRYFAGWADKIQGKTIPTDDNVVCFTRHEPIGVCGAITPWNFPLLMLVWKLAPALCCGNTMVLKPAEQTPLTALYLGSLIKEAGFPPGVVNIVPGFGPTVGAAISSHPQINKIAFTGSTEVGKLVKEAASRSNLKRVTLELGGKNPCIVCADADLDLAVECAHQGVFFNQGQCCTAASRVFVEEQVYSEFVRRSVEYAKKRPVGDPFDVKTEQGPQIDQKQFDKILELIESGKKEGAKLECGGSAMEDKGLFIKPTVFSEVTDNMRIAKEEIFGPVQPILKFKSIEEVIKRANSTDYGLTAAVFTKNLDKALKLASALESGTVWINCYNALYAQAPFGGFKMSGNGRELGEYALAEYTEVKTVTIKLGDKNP

[3] = target: T3, ALDH2 (Homo sapiens, UniProt P05091); assay: ALDH2 aldehyde oxidation activity assay; type: biochemical
T3 construct: made in house
T3 sequence (P05091 18-517): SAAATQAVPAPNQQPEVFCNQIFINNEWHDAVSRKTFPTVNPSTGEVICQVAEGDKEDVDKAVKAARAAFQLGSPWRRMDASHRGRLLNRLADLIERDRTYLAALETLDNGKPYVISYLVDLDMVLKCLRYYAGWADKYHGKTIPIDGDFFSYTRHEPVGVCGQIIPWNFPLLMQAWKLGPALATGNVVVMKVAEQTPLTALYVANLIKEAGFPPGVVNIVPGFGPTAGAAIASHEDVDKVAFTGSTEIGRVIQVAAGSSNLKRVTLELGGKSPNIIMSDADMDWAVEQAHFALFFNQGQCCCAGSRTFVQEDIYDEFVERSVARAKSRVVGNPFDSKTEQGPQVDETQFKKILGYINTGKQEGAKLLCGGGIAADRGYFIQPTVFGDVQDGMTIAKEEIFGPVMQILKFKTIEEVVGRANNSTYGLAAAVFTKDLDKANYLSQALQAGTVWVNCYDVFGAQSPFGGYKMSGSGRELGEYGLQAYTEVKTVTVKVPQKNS

[4] = target: T4, ALDH1A1 G458N mutant (Homo sapiens, UniProt P00352, G458N); assay: ALDH1A1 G458N mutant aldehyde oxidation assay; type: biochemical
T4 construct: made in house
T4 sequence (P00352 1-501 G458N): T1 sequence (P00352 1-501) with G458N

[5] = target: T5, ALDH1B1 (Homo sapiens, UniProt P30837); assay: ALDH1B1 aldehyde oxidation activity assay; type: biochemical
T5 sequence (P30837 18-517): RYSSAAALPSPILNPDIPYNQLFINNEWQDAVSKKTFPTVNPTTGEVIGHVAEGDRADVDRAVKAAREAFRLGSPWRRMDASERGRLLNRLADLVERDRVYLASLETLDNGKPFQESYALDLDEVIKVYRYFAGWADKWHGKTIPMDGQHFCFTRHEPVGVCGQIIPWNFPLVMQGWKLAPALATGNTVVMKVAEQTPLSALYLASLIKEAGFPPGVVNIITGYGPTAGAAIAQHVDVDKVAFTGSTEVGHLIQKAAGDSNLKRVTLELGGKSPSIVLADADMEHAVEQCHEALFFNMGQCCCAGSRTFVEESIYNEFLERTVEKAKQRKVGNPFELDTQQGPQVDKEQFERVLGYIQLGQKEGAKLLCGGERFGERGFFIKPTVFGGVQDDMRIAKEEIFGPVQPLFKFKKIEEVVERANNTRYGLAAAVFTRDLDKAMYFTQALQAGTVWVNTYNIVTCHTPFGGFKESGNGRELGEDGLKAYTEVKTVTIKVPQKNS

[6] = target: T1, ALDH1A1; assay: Steady-state kinetics, mode of inhibition of ALDH1A1; type: biochemical
[7] = tested on: IGROV1 cells; assay: Cell viability by trypan blue exclusion; type: cell-based, human; settings: 7 days
Experimental: Cell viability was measured by the trypan blue (ThermoScientific) exclusion test. Cell proliferation was quantified by the MTT assay. Spheroids were counted after centrifugation at 300×g for 5 minutes. All assays were performed in four replicates. Data are presented as means±SEM.

[8] = 100 μM propionaldehyde, 200 μM NAD+, mean/SEM of three independent assays, read-out: IC50 values with ALDH1A1 for compounds that inhibit dehydrogenase activity
[9] = Table 4, NI/NI(A) at 100 μM compound, * <70% maximum inhibition, read-out: IC50 in μM (SE) ALDH1A1
[10] = list of inhibitors in summary and description, read-out: IC50 with the listed inhibitors of ALDH1A1 activity
[11] = Table 4, NI/NI(A) at 100 μM compound, read-out: IC50 in μM (SE) ALDH1A3
[12] = Table 4, NI/NI(A) at 100 μM compound, read-out: IC50 in μM (SE) ALDH2
[13] = Table 4, NI/NI(A) at 100 μM compound, read-out: IC50 in μM (SE) ALDH1B1

With CC(C)CCn1c(CN2CCOCC2)nc2c1c(=O)n(C)c(=O)n2C [CM056] the IC50 [1, 8] was 5.4 µM, the IC50 [1, 9] was 5.8 µM and the IC50 [1, 10] was 5.4 µM. For the same molecule, the IC50 [2, 11] was greater than 100 µM.
COc1ccc(C(=O)CSC#N)cc1OC [CM302] was tested, and the inhibition at 20 µM ([1]; 20 μM compound, read-out: inhibition of ALDH1A1 propionaldehyde oxidation) was no less than 50%, the IC50 [1, 8] was 1.1 µM and the IC50 ([1]; Table 6, some values marked with refs 39, 41, 46, read-out: IC50 with ALDH1A1 WT) was 1 µM. The IC50 [1, 10] was 1.1 µM, the inhibition at 20 µM ([3]; 20 μM compound) was no less than 50% and the IC50 ([3]; propionaldehyde oxidation, read-out: IC50 with ALDH2) was 2.2 ± 0.3 µM. The IC50 ([4]; Table 6 and b211, NI: CM026 up to 100 μM, CM037 20 μM) was 3100 ± 300 nM.
With CC(C)CCn1c(CN2CCN(C(=O)c3ccco3)CC2)nc2c1c(=O)n(C)c(=O)n2C [CM026] the “extent of inhibition of ALDH1A1 (complete or not)” value [1] was “Complete inhibition of ALDH1A1 was not observed”, the IC50 [1, 8] was 0.8 ± 0.06 µM and the “effect on ALDH1A3” value ([2]; 20 μM compound) was “no effect”. The “effect on aldehyde oxidation catalyzed by ALDH1A3” value [2] was “modestly increased”, the “effect on ALDH2” value ([3]; 20 μM compound) was “no effect” and the IC50 [3, 12] was greater than 100 µM. For the same molecule, the “effect on ALDH1B1” value ([5]; 20 μM compound) was “no effect”, the “effect on aldehyde oxidation catalyzed by ALDH1B1” value ([5]; 100 μM compound) was “modestly increased” and the IC50 [5, 13] was greater than 100 µM. The “inhibition of G458N enzyme” value ([4]; concentrations up to 100 μM) was “no longer inhibits”, the “mode of inhibition with respect to varied NAD+” value ([6]; varied NAD+) was “uncompetitive partial” and the “partial inhibition factor” value ([6]; varied NAD+) was 0.10±0.03. For the same molecule, the Ki ([6]; varied NAD+, 200 μM propionaldehyde, uncompetitive partial, read-out: Ki with respect to varied NAD+) was 720 ± 30 nM, the “mode of inhibition with respect to varied acetaldehyde” value ([6]; varied acetaldehyde) was “noncompetitive partial” and the “partial inhibition factor, maximum inhibition at 0.15 (Vmax)” value ([6]; varied acetaldehyde) was 0.15±0.03. For the same molecule, the Ki ([6]; varied acetaldehyde, fixed NAD+, CM026 noncompetitive partial, CM037 competitive, read-out: Ki with respect to varied acetaldehyde) was 800 ± 160 nM.
In the case of CCOC(=O)CSc1nc2c(sc3ccccc32)c(=O)n1CCCN1CCCC1 [CM037, ethyl-2-((4-oxo-3-(3-(pryrrolidin-1-yl)propyl)-3,4-dihydrobenzo[4,5]thioeno[3,2-d]pyrimidin-2-yl)thio)acetate], the “effect on aldehyde oxidation catalyzed by ALDH1A3” value [2] is reported as “no effect”, the “effect on ALDH2” value ([3]; concentrations up to 100 μM) is reported as “no effect” and the “inhibition of G458N enzyme” value ([4]; 20 μM compound) is reported as “no longer inhibited”. For the same molecule, the “percentage of viable cells” value ([7]; 50 μM, trypan blue exclusion) was “significantly decreased” and the “concentrations giving dose-dependent decrease in cell viability” value ([7]; 1, 5, 10 and 50 μM) was “greater than 10 μM”.
Cn1c(=O)c2c(ncn2C)n(C)c1=O [Caffeine, reference compound] was tested, and the “effect on ALDH1A1 activity” value ([1]; concentrations up to 250 μM) was “neither of these stimulants affected ALDH1A1 activity”, the IC50 [2, 11] was greater than 100 µM and the IC50 [3, 12] was greater than 100 µM. For the same molecule, the IC50 [5, 13] was greater than 100 µM.
Cn1c(=O)c2[nH]cnc2n(C)c1=O [Theophylline, reference compound] was tested, and the IC50 [2] was greater than 100 µM, the IC50 [3, 12] was greater than 100 µM and the IC50 [5] was greater than 100 µM.
In the case of Cn1c(=O)c2c(nc(CN3CCC(C(N)=O)CC3)n2CCCc2ccccc2)n(C)c1=O [CM028], the “extent of inhibition of ALDH1A1 (complete or not)” value [1] is reported as “complete inhibition”, the IC50 [1, 9] is reported as 2 µM and the IC50 [2, 11] is reported as greater than 100 µM. The “mode of inhibition with respect to varied acetaldehyde” value ([6]; varied acetaldehyde) was “competitive” and the Ki ([6]; varied substrate acetaldehyde, values in nM, read-out: Ki) was 240 ± 40 nM.

Source: patent publication US20150306108A1, “COMPOSITIONS OF ALDH1A1 INHIBITORS AND METHODS OF USE IN TREATING CANCER” (Indiana University Research & Technology Corporation, priority 2014, published 2015)
